Blank lines part the entries; values can stand above or below the compound they belong to.
Key:
Assay in all cases: SPR (equilibrium)
[1] = tested on: TZea-579 (full length, G12A, SPR form) (RNA, ribozyme) GGGAAACAAACAAAGCUGUCACCGGGUAGAACAGAAUGCAAGUGCGUAGAAGCGCCUCCGGUCUGACGAGUCCUUAGCACGGACAAAACAGCAAAAAAAAAAAAAAAAAAAAAAAA; details: Na+ (1.5 M NaCl [sic]), Mg2+ 0.5 mM; HBS-N (0.1 M HEPES [sic]), pH 7.4
[2] = tested on: TZea-579 large stem loop (RNA, aptamer) GGGACCGGGUAGAACAGAAUGCAAGUGCGUAGAAGCGCCUCCGGUCCCCAAAAAAAAAAAAAAAAAAAAAAAA; details: Na+ (1.5 M NaCl [sic]), Mg2+ 0.5 mM; HBS-N (0.1 M HEPES [sic]), pH 7.4
[3] = tested on: TZea-927 (full length, G12A, SPR form) (RNA, ribozyme) GGGAAACAAACAAAGCUGUCACCGGAAACUGGAUCUGGUCUGAUGAGUCCCUCCAUGCGACCCAGUGUGAUACGUGGACAGGACAAAACAGCAAAAAAAAAAAAAAAAAAAAAAAA; details: Na+ (1.5 M NaCl [sic]), Mg2+ 0.5 mM; HBS-N (0.1 M HEPES [sic]), pH 7.4
[4] = tested on: TZea-927 large stem loop (T7_zea927_polyA) (RNA, aptamer) GGGGUCCCUCCAUGCGACCCAGUGUGAUACGUGGACAGGACCCCCAAAAAAAAAAAAAAAAAAAAAAAA; details: Na+ (1.5 M NaCl [sic]), Mg2+ 0.5 mM; HBS-N (0.1 M HEPES [sic]), pH 7.4
[5] = tested on: Gard-547 (full length, G12A, SPR form) (RNA, ribozyme) GGGAAACAAACAAAGCUGUCACCGGAAUAGUCGAUGGGUGCUACAUAGCGCCGGAAUCCAGUCUGAUGAGUCUCUCGGCAGGACAAAACAGCAAAAAAAAAAAAAAAAAAAAAAAA; details: Na+ (1.5 M NaCl [sic]), Mg2+ 0.5 mM; HBS-N (0.1 M HEPES [sic]), pH 7.4; no replicates
[6] = tested on: SRet-760 (full length, G12A, SPR form) (RNA, ribozyme) GGGAAACAAACAAAGCUGUCACUGGACCCUAACAUUCCAGUCUGAUGAGUCCUAUAGGCACGCUUCCCCCAGGUGUAGGGAGGACAAAACAGCAAAAAAAAAAAAAAAAAAAAAAAA; details: Na+ (1.5 M NaCl [sic]), Mg2+ 0.5 mM; HBS-N (0.1 M HEPES [sic]), pH 7.4
[7] = tested on: SRet-760 large stem loop (T7_SRet760_polyA) (RNA, aptamer) GGGGUCCUAUAGGCACGCUUCCCCCAGGUGUAGGGAGGACCCCCAAAAAAAAAAAAAAAAAAAAAAAA; details: Na+ (1.5 M NaCl [sic]), Mg2+ 0.5 mM; HBS-N (0.1 M HEPES [sic]), pH 7.4
[8] = tested on: SRet-584 (full length, G12A, SPR form) (RNA, ribozyme) GGGAAACAAACAAAGCUGUCACUGGACGCAAAAAUUCCAGUCUGAUGAGUCCAUAAUGAGCAACAACACGAUUCCUCAUGCGGGACAAAACAGCAAAAAAAAAAAAAAAAAAAAAAAA; details: Na+ (1.5 M NaCl [sic]), Mg2+ 0.5 mM; HBS-N (0.1 M HEPES [sic]), pH 7.4
[9] = tested on: Nosc-441 (full length, G12A, SPR form) (RNA, ribozyme) GGGAAACAAACAAAGCUGUCACCGGAAGAACUGACAUUUGCAACGUCAUGUGCGAUGUCCAACGUGUAGCCACCUAGGCGUACAGAUCCGGUCUGAUGAGUCCUCGAUGGACAAAACAGCAAAAAAAAAAAAAAAAAAAAAAAA; details: Na+ (1.5 M NaCl [sic]), Mg2+ 0.5 mM; HBS-N (0.1 M HEPES [sic]), pH 7.4
[10] = tested on: Nosc-441 large stem loop (RNA, aptamer) GGGACCGGAAGAACUGACAUUUGCAACGUCAUGUGCGAUGUCCAACGUGUAGCCACCUAGGCGUACAGAUCCGGUCCCCAAAAAAAAAAAAAAAAAAAAAAAA; details: Na+ (1.5 M NaCl [sic]), Mg2+ 0.5 mM; HBS-N (0.1 M HEPES [sic]), pH 7.4
[11] = tested on: Nosc-786 (full length, G12A, SPR form) (RNA, ribozyme) GGGAAACAAACAAAGCUGUCACCGGAAGAACUUACAUUUGCAACGUCAUGUGCGAUGUCCAACGUGUAGCCACCUAGGCGUACAGAUCCGGUCCGAUGAGUCCUCGAUGGACAAAACAGCAAAAAAAAAAAAAAAAAAAAAAAA; details: Na+ (1.5 M NaCl [sic]), Mg2+ 0.5 mM; HBS-N (0.1 M HEPES [sic]), pH 7.4
[12] = tested on: Theo-421 (full length, G12A, SPR form) (RNA, ribozyme) GGGAAACAAACAAAGCUGUCACCGGAAUGUGAGUCCGGUCUGAUGAGUCCCUCAUGUGCCUUCCAGCGGUACGAUACUCAGGACAAAACAGCAAAAAAAAAAAAAAAAAAAAAAAA; details: Na+ (1.5 M NaCl [sic]), Mg2+ 0.5 mM; HBS-N (0.1 M HEPES [sic]), pH 7.4
[13] = tested on: Theo-421 truncation, minimum free energy structure (T7_theo421_polyA_MFE) (RNA, aptamer) GGGGUCCCUCAUGUGCCUUCCAGCGGUACGAUACUCAGGACCCCCAAAAAAAAAAAAAAAAAAAAAAAA; details: Na+ (1.5 M NaCl [sic]), Mg2+ 0.5 mM; HBS-N (0.1 M HEPES [sic]), pH 7.4
[14] = tested on: Theo-421 truncation, 1st suboptimal structure (T7_theo421_polyA_subopt1) (RNA, aptamer) GGGUGAGUCCCUCAUGUGCCUUCCAGCGGUACGAUACUCACCCCAAAAAAAAAAAAAAAAAAAAAAAA; details: Na+ (1.5 M NaCl [sic]), Mg2+ 0.5 mM; HBS-N (0.1 M HEPES [sic]), pH 7.4
[15] = tested on: Acic-145 (full length, G12A, SPR form) (RNA, ribozyme) GGGAAACAAACAAAGCUGUCACCGGAAUAACCGAAGUAGUUUAUGGGCUACCGAAAUCCGGUCUGAUGAGUCCUCGGGGUGGACAAAACAGCAAAAAAAAAAAAAAAAAA; details: Na+ (1.5 M NaCl [sic]), Mg2+ 0.5 mM; HBS-N (0.1 M HEPES [sic]), pH 7.4
[16] = tested on: Acic-145 large stem loop (T7_acic145_polyA) (RNA, aptamer) GGGACCGGAAUAACCGAAGUAGUUUAUGGGCUACCGAAAUCCGGUCCCCAAAAAAAAAAAAAAAAAAAAAAAA; details: Na+ (1.5 M NaCl [sic]), Mg2+ 0.5 mM; HBS-N (0.1 M HEPES [sic]), pH 7.4

Compound: CCNCc1nc2c(N)nc3ccccc3c2n1CC(C)(C)O
KD [5]: 10.1 nM

Compound: COc1ccc(C[C@H]2c3cc(O)c(OC)cc3CCN2C)cc1O
KD [6]: 0.15 ± 0.01 µM | binding [7]: no | Equilibrium KD [8]: 465 nM

Compound: COc1ccc2c(c1OC)C(=O)O[C@@H]2[C@H]1c2c(cc3c(c2OC)OCO3)CCN1C
KD [9]: 13 ± 2 µM | KD [10]: 20 ± 7 µM | Equilibrium KD [11]: 28.7 µM

Next, values leading:

KD [1]: 3.1 ± 0.5 µM | KD [2]: 37 ± 3 µM | KD [3]: 62 ± 20 µM | binding [4]: no
Compound: C/C(=C\CNc1ncnc2[nH]cnc12)CO

KD [12]: 68 ± 20 µM | binding [13]: no | KD [14]: 17.0 ± 0.7 µM
Compound: Cn1c(=O)c2[nH]cnc2n(C)c1=O

KD [15]: 1.5 ± 0.3 µM | KD [16]: 0.700 ± 0.004 µM
Compound: Nc1nc2c(ncn2COCCO)c(=O)[nH]1

Source: publication PMC7933316 (2021)
